Data published in article PMC10447463, “Data-mining unveils structure–property–activity correlation of viral infectivity enhancing self-assembling peptides” (Nature Communications, 2023).
Values joined by “and” are separate entries in the source; they are usually repeats but may differ in a detail not shown here. Equal entries are not always repeated. Where two headings read alike, the source gives them in different places.

How the values were obtained:
[1] = assay type: physicochemical; set-up: key to Fibril / Fibril Formation / TEM 2cat / Fibril: 1 = fibrils present; 0 non-fibrillar structures; details: for TEM 2cat: fibril category by TEM
[2] = tested on: HIV-1 infection of TZM-bl cells; assay: HIV-1 infectivity enhancement assay, β-galactosidase luminescence; assay type: cell-based; details: for Log10 Inf. rel. to EF-C: log10 of HIV-1 infection of TZM-bl cells relative to EF-C, Fig S15 source data; for Rel-to EFC / n-fold to virus: Fig S8 panels B, D; for Log10 Infection Rel EF-C: HIV-1 infection of TZM-bl cells
[3] = β-sheet content by ATR-FT-IR; assay type: physicochemical
How it was run: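 Conversion rate: fluorescamine fluorescence (ex 365/em 470 nm, 20 min RT) of 3 kDa filtrate versus unfiltered PNF, CR = 100 − 100 × filtrate/original intensity, triplicates. β-sheet content came from ATR FT-IR of lyophilized 1 mg/mL PNF powder, 64 scans.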

[4] = assay type: physicochemical; details: for Tht category (> 1.5 to blank = +): category 1/0
How it was run: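 Preformed peptide fibrils (1 mg/mL) mixed with 50 µM ThT in PBS, 15 min at RT, fluorescence ex 440/em 488 nm versus PBS blank, triplicates. Zeta potential: peptides at 1 mg/mL in PBS pH 7.4, aged 1 d at RT, diluted in 1 mM KCl, Smoluchowski from electrophoretic mobility.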

[5] = Feb2021, Log10 of infectivity relative to EF-C
[6] = Feb2021, figures match the 1.3 µM column
[7] = Feb2021, infectivity enhancement relative to EF-C
[8] = Feb2021, infectivity relative to virus only
[9] = Feb2021, n-fold infectivity relative to EF-C
[10] = infectivity class (low / medium / high) of each library peptide, main list in c1-c6, same classes repeated in sub-lists of sequences containing the hydrophobicity/charge patterns P+,H0,P+,H0,P0,H0,P0, P+,H0,P0,H0,P0,H0,P0, P+,H0,P0,H0
[11] = ThT fluorescence relative to blank (42.1851851851852 a.u.)
[12] = ThT fluorescence relative to blank, blank = 42.1851851851852
[13] = Feb2021, 1.3 µM value relative to virus only (0 µM)
[14] = Feb2021, unrounded values of the 1.3 µM column
[15] = relative to blank 42.1851851851852 a.u.
[16] = Feb2021, n-fold enhancement relative to EF-C
[17] = Feb2021 run, infectivity n-fold relative to virus alone
[18] = Feb2021 run, log10 of infectivity relative to EF-C
[19] = Feb2021 run, n-fold infectivity relative to EF-C
[20] = infectivity enhancement relative to EF-C
[21] = infectivity n-fold relative to virus alone

Row | Substance | TEM: 1= fibrils, 0= aggregates (micelle), 0.5 = aggregates and fibrils, -1 = nothing obersved, STD prep [1] | Log10 of Rel to EFC (Feb2021) [2, 5] | Absolute Infectivity / RLU /s (Feb2021) [2, 6] [RLU /s] | Rel-to EFC (Feb-2021) [2, 7] | n-fold to virus (Feb2021) [2, 8] | Rel-to EFC (Feb-2021) [2, 9] | infectivity [2, 10] | Log10 Inf. rel. to EF-C ([2]; asymmetric std dev errors) | FTIR ß-sheet content/ % ([3]; ATR-FT-IR) | Tht rel to blank (42.1851851851852) [4, 11] | Tht rel to blank (42.1851851851852) [4, 12] | Tht category (> 1.5 to blank = +) [4] | n-fold to virus (Feb2021) [2, 13] | Absolute Infectivity / RLU /s (Feb2021) [2, 14] [RLU /s] | Tht rel to blank (42.1851851851852) [4, 15] | Rel-to EFC (Feb-2021) [2, 16] | n-fold to virus (Feb2021) [2, 17] | Log10 of Rel to EFC (Feb2021) [2, 18] | Rel-to EFC (Feb-2021) [2, 19] | FTIR ß-sheet content/ % [3] [%] | other results
1 | KLKQLL [KM27 / psis14] | 0.5 | -2.131 | 196.7 | 0.00739 | 0.3105 | 0.00739 | low | -2.131 | 0% | 1.089 | 1.089 | 0 (ThT-inactive (N-Fold <2)) | – | – | – | – | – | – | – | – | –
2 | MKFKFQF [DF5 / CK16] | 1 | – | – | – | – | 0.06366 | low | -1.196 | 21.97% | – | – | 0 (ThT-inactive (N-Fold <2)) | 2.675 | 1427 | 0.9846 | – | – | – | – | – | Log10 of Rel to EFC (Feb2021) ([2]; Feb2021, log10 of infectivity relative to EF-C): -1.196
3 | QCKFKFQFNMWQ [CK7] | 1 | -0.2086 | – | – | – | 0.6186 | medium | -0.2086 | 47% and 47.05% | 1.854 | – | 0 (ThT-inactive (N-Fold <2)) | 25.99 | 19753.33333 | 1.854 | 0.6186 | 25.99 | -0.2086 | 0.6186 | 47.05 | –
4 | QCKFKQFF [CK12] | 1 | -1.907 | 170 | 0.01239 | 0.5204 | 0.01239 | low | -1.907 | 0% | 2.349 | 2.349 | 1 (ThT. Cat is 1, if Rel. ThT >2) | – | – | 2.349 | – | 0.5204 | -1.907 | 0.01239 | – | –
5 | QCKFKQFFNM [CK11] | 0.5 | -0.3706 | 5847 | 0.426 | 17.9 | 0.426 | medium | -0.3706 | 42% and 41.84% | 12.72 | 12.72 | 1 (ThT. Cat is 1, if Rel. ThT >2) | – | – | 12.72 | – | 17.9 | -0.3706 | 0.426 | 41.84 | –
6 | QCKFKQFFNMWQ [CK10] | 0.5 | -0.606 | – | – | 6.098 | 0.2478 | medium | -0.6059 | 42% and 41.78% | 25.38 | 25.38 | 1 (ThT. Cat is 1, if Rel. ThT >2) | – | – | 25.38 | 0.2478 | 6.098 | -0.606 | 0.2478 | 41.78 | Rel-to EFC [2, 20]: 0.2478; n-fold to virus [2, 21]: 6.098
7 | QCKIKIQINMWQ [EF-C opt] | 1 | 0.01546 | – | – | – | 1.036 | high | 0.01546 | 48% and 48.38% | 9.054 | – | 1 (ThT. Cat is 1, if Rel. ThT >2) | 43.54 | 21221.11111 | 9.054 | 1.036 | 43.54 | 0.01546 | 1.036 | 48.38 | Rel-to EFC [2, 20]: 1.036; n-fold to virus [2, 21]: 43.54; infectivity ([2]; infectivity class (low / medium / high) of the peptide in the sequence-pattern analysis, Fig. S22-A4, class limits not given): high
8 | RGDCKFKFQF [TM64/ CN15] | 1 | -0.8186 | 4637 | – | 6.381 | 0.1519 | medium | -0.8186 | 47% and 46.68% | 6.788 | 6.788 | 1 (ThT. Cat is 1, if Rel. ThT >2) | – | – | – | 0.1519 | – | – | – | – | –
9 | RGDKIKIQI | – | – | – | – | – | – | – | – | – | – | – | – | – | – | – | – | – | – | – | – | TEM 2cat ([1]; Fig S10 panel D): 1; TEM 2cat ([1]; FigS12 panel A): 1; Fibril ([1]; FigS12 panel B, TEM): 1; Fibril / Fibril Formation ([1]; TEM, 1 mg/mL, uranyl acetate stain, qualitative): 1; Fibril ([1]; TEM, 1 = fibrils present, 0 = non-fibrillar): 1; Fibril ([1]; TEM, 1 = fibrils present, 0 = non-fibrillar structures): 1; Rel-EFC ([2]; 1.3 µM peptide, infection relative to EF-C (QCKIKQIINMWQ = 1)): 0,02; Log10 Infection Rel EFC ([2]; 1.3 µM peptide, log10 of infection relative to EF-C): -1,81; Log Infectivity ([2]; Fig. S7 panel A (plotted against β-sheet content), Log10 infection relative to EF-C, TZM-bl cells, asymmetric std dev errors): -1.805; Log10 Infection Rel EF-C ([2]; Log10 of infection rate relative to EF-C, Figure 3A source data): -1.81; Log10 Infection Rel EF-C ([2]; infection rate relative to EF-C, log10, data of Figure 2D): -1.805; Log10 Infection Rel EF-C ([2]; infection rate relative to EF-C, log10, source data of Figure 2C): -1.805; b -sheet / % ([3]; Fig. S7 panel A, β-sheet content by ATR-FT-IR): 40.49%; Tht category (> 2 to blank = +) ([4]; Fig S10 panel D): 1 (ThT. Cat is 1, if Rel. ThT >2); Tht category (> 2 to blank = +) ([4]; FigS12 panel A): 1 (ThT. Cat is 1, if Rel. ThT >2); ThT Cat, ([4]; FigS12 panel B): 1 (ThT. Cat is 1, if Rel. ThT >2); ThT Cat, ([4]; ThT category, 1 if Rel. ThT >2): 1 (ThT. Cat is 1, if Rel. ThT >2); ThT Cat. ([4]; ThT fluorescence category, 1 if Rel. ThT >2): 1 (ThT. Cat is 1, if Rel. ThT >2); ThT Cat. / ThT-Fluorescence (categorical) ([4]; ThT-active if fluorescence at least twice the control): 1 (ThT. Cat is 1, if Rel. ThT >2)
